From patent US20070238742A1, “METHODS OF PREPARATION AND RESOLUTION OF E/Z ISOMERS OF VINYLFURO[2,3-D]PYRIMIDINE AND THEIR BIOLOGICAL ACTIVITIES AND RELATED COMPOSITIONS AND METHODS OF TREATMENT” (priority 2006, published 2007)

Tested on: chick aorta
Test: aortic ring assay: chick aorta pieces in culture with angiogenic agents
Type: cell-based
Settings: for resumption of angiogenesis / regrowth of capillary-like structures on removal: after removal of the agent, relative to tissue not treated with antiangiogenic agents (control); for inhibition of angiogenesis compared with the E/Z mixture: E-isomer vs E/Z mixture 5
Description: Biological activity in angiogenic assays were chosen as a way to compare anti-angiogenic activity, potency an reversibility of inhibition. The studies were conducted on pieces of chick aorta placed in culture with a mixture of angiogenic agents and various compounds.
Unresolved mixture of E/Z-isomers 5 and isolated E-isomer 1 from the series of compounds under study were assessed for desirable biological activities, i.e., antiangiogenic activity and persistence of inhibitory activity. It is well known that binding vascular endothelial growth factor with antibodies or aptamers or inhibiting VEGF signaling with small molecules reduces and even reverses angiogenesis. However, angiogenesis rapidly resumes once the agent is removed (Mancuso et al., J. Clin. Invest., 116:610-21, 2006; Baffert et al., Am. J. Physiol. Heart, 290:H509-11, 2006). In the case of tumors, rapid regrowth of new vessels contributes to the regrowth and survival of the tumor.

Structure (SMILES): Nc1nc(N)c2c(/C=C/c3ccc4ccccc4c3)coc2n1 (single isomer, unassigned; isomer 1) [E-isomer 1, 5-E-(2-naphthalen-2-yl-vinyl)-furo[2,3-d]pyrimidine-2,4-diamine]
- resumption of angiogenesis / regrowth of capillary-like structures on removal: 31%
- inhibition of angiogenesis compared with the E/Z mixture (comparison in words): comparable inhibition of angiogenesis
- inhibition of angiogenesis compared with the E/Z mixture (comparison in words, listed as E-isomer): greater inhibition on a molar basis
- resumption of angiogenesis compared with the E/Z parent compound (comparison in words, after removal): less resumption of angiogenesis

Structure (SMILES): Nc1nc(N)c2c(C=Cc3ccc4ccccc4c3)coc2n1 [E/Z mixture 5, 5-Z/E-(2-naphthalen-2-yl-vinyl)-furo[2,3-d]pyrimidine-2,4-diamine]
- resumption of angiogenesis / regrowth of capillary-like structures on removal: ~72%
- inhibition of capillary outgrowth (aortic ring assay, compound present): 84%
